According to US10208059B2, “Heterocyclic modulators of HIF activity for treatment of disease” (Board of Regents, University of Texas System, priority 2012, dated 2019):
pIC50: −log10 of the molar value. Counter-ions that a name gives are not always drawn.

Each compound was assayed on 293T-HRE-GFP-luc cells (assay: Cell-based reporter assay for IC50 determinations). Conditions: hypoxia 6 hrs (1% O2), luminescence, read-out: IC50 Classification.
In short: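 IC50 comes from a four-parameter logistic fit of luminescence from HRE-GFP-luc 293T cells. Compounds (1:3 series, 1:50 medium dilution) were preincubated 30 min under normoxia, followed by 6 h at 1% O2, 5% CO2, 37 °C, before Steadylite luciferase detection.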

| Structure (SMILES) | pIC50 |
| --- | --- |
| Cc1nc(-c2nnc(-c3ccc(C(C)(C)C)cc3)o2)nn1Cc1cccc(N2CCOCC2)c1 [Example 98, 4-(3-((3-(5-(4-(tert-butyl)phenyl)-1,3,4-oxadiazol-2-yl)-5-methyl-1H-1,2,4-triazol-1-yl)methyl)phenyl)morpholine] | > 7.00 |
| Cc1nc(-c2nc(-c3ccc(OC(F)(F)F)cc3)no2)nn1Cc1cccc(OCC(=O)N(C)C)c1 [Example 62, N N-Dimethyl-2-{3-[(5-methyl-3-{3-[4-(trifluoromethoxy)phenyl]-124-oxadiazol-5-yl}-1H-124-triazol-1-yl)methyl]phenoxy}acetamide] | > 7.00 |
| Cc1nc(-c2nc(-c3ccc(OC(F)(F)F)cc3)no2)nn1Cc1ccnc(NCCN2CCOCC2)c1 [Example 35, 4-((5-Methyl-3-(3-(4-(trifluoromethoxy)phenyl)-1,2,4-oxadiazol-5-yl)-1H-1,2,4-triazol-1-yl)methyl)-N-(2-morpholinoethyl)pyridin-2-amine] | > 7.00 |
| Cc1nc(-c2nc(-c3ccc(OC(F)(F)F)cc3)no2)nn1Cc1cccc(C(=O)NC2CC2)c1 [Example 124, N-cyclopropyl-3-[(5-methyl-3-{3-[4-(trifluoromethoxy]phenyl]-1,2,4-oxadiazol-5-yl}-1H-1,2,4-triazol-1-yl)methyl]benzamide] | > 7.00 |
| Cc1nc(-c2nc(-c3ccc(OC(F)(F)F)cc3)no2)nn1Cc1cccc(OC2CCOCC2)c1 [Example 69, 5-(5-Methyl-1-{[3-(oxan-4-yloxy)phenyl]methyl}-1H-1,2,4-triazol-3-yl)-3-[4-(trifluoromethoxy)phenyl]-1,2,4-oxadiazole] | > 7.00 |
| Cc1nc(-c2nc(-c3ccc(OC(F)(F)F)cc3)no2)nn1Cc1cccc(N2CCOCC2)c1 [Example 44, 4-(3-((5-Methyl-3-(3-(4-(trifluoromethoxy)phenyl)-1,2,4-oxadiazol-5-yl)-1H-1,2,4-triazol-1-yl)methyl)phenyl)morpholine] | > 7.00 |
| Cc1nc(-c2nc(-c3ccc(OC(F)(F)F)cc3)no2)nn1Cc1ccc2c(c1)OCO2 [Example 111, 5-(1-(benzo[d][1,3]dioxol-5-ylmethyl)-5-methyl-1H-1,2,4-triazol-3-yl)-3-(4-(trifluoromethoxy)phenyl)-1,2,4-oxadiazole] | 6.00 to 7.00 |
| Cc1nc(-c2nc(-c3ccc(OC(F)(F)F)cc3)no2)nn1Cc1ccnc(NCCN2CCCC2)c1 [Example 46, 4-((5-Methyl-3-(3-(4-(trifluoromethoxy)phenyl)-1,2,4-oxadiazol-5-yl)-1H-1,2,4-triazol-1-yl)methyl)-N-(2-(pyrrolidin-1-yl)ethyl)pyridin-2-amine] | 5.00 to 6.00 |
| Cc1nc(-c2nc(-c3ccc(OC(F)(F)F)cc3)no2)nn1Cc1cccc(OCCCO)c1 [Example 71, 3-{3-[(5-Methyl-3-{3-[4-(trifluoromethoxy)phenyl]-1,2,4-oxadiazol-5-yl}-1H-1,2,4-triazol-1-yl)methyl]phenoxy}propan-1-ol] | > 7.00 |
| COC(=O)CNS(=O)(=O)c1cccc(Cn2nc(-c3nc(-c4ccc(OC(F)(F)F)cc4)no3)nc2C)c1 [Example 134, methyl 2-{3-[(5-methyl-3-{3-[4-(trifluoromethoxy)phenyl]-1,2,4-oxadiazol-5-yl}-1H-1,2,4-triazol-1-yl)methyl]benzenesulfonamido}acetate] | > 7.00 |
| Cc1nc(-c2nc(-c3ccc(OC(F)(F)F)cc3)no2)nn1Cc1ccnc(N2CCC(S(C)(=O)=O)CC2)c1 [Example 146, 2-(4-methanesulfonylpiperidin-1-yl)-4-[(5-methyl-3-{3-[4-(trifluoromethoxy)phenyl]-1,2,4-oxadiazol-5-yl}-1H-1,2,4-triazol-1-yl)methyl]pyridine] | > 7.00 |
| Cc1nc(-c2nc(-c3ccc(OC(F)(F)F)cc3)no2)nn1Cc1cccc(OCC(N)=O)c1 [Example 61, 2-{3-[(5-Methyl-3-{3-[4-(trifluoromethoxy)phenyl]-124-oxadiazol-5-yl}-1H-124-triazol-1-yl)methyl]phenoxy}acetamide] | > 7.00 |
| Cc1nc(-c2nc(-c3ccc(OC(F)(F)F)cc3)no2)nn1Cc1ccc(OCC(C)C)nc1 [Example 77b, 5-[(5-Methyl-3-{3-[4-(trifluoromethoxy)phenyl]-1,2,4-oxadiazol-5-yl}-1H-1,2,4-triazol-1-yl)methyl]-2-(2-methylpropoxy)pyridine] | 6.00 to 7.00 |
| Cc1nc(-c2nc(-c3ccc(OC(F)(F)F)cc3)no2)nn1Cc1cccc(N2CCN(S(C)(=O)=O)CC2)c1 [Example 82, 1-Methanesulfonyl-4-{3-[(5-methyl-3-{3-[4-(trifluoromethoxy)phenyl]-1,2,4-oxadiazol-5-yl}-1H-1,2,4-triazol-1-yl)methyl]phenyl}piperazine] | > 7.00 |
| Cc1nc(-c2ncc(-c3ccc(OC(F)(F)F)cc3)o2)nn1Cc1cccc(O)c1 [Example 156, 3-[(5-methyl-3-{5-[4-(trifluoromethoxy)phenyl]-1,3-oxazol-2-yl}-1H-1,2,4-triazol-1-yl)methyl]phenol] | 5.00 to 6.00 |
| C=Cc1cccc(Cn2nc(-c3nc(-c4ccc(OC(F)(F)F)cc4)no3)nc2C)c1 [Example 84, 5-{1-[(3-Ethenylphenyl)methyl]-5-methyl-1H-1,2,4-triazol-3-yl}-3-[4-(trifluoromethoxy)phenyl]-1,2,4-oxadiazole] | 6.00 to 7.00 |
| Cc1nc(-c2nc(-c3ccc(OC(F)(F)F)cc3)no2)nn1Cc1cccc(O)c1 [Example 59, 3-((5-Methyl-3-(3-(4-(trifluoromethoxy)phenyl)-1,2,4-oxadiazol-5-yl)-1H-1,2,4-triazol-1-yl)methyl)phenol] | 6.00 to 7.00 |
| Cc1ccc(-c2noc(-c3nc(C)n(Cc4ccnc(N5CCN(C)CC5)c4)n3)n2)cc1 [Example 22, 1-Methyl-4-(4-((5-methyl-3-(3-(p-tolyl)-1,2,4-oxadiazol-5-yl)-1H-1,2,4-triazol-1-yl)methyl)pyridin-1-ium-2-yl)piperazin-1-ium bis-trifluoroacetate] | 6.00 to 7.00 |
| Cc1nc(-c2nc(-c3ccc(OC(F)(F)F)cc3)no2)nn1Cc1cc[nH]c(=O)c1 [Example 75, 4-[(5-Methyl-3-{3-[4-(trifluoromethoxy)phenyl]-1,2,4-oxadiazol-5-yl}-1H-1,2,4-triazol-1-yl)methyl]-1,2-dihydropyridin-2-one] | 6.00 to 7.00 |
| Cc1nc(-c2nc(-c3ccc(OC(F)F)cc3)no2)nn1Cc1ccnc(N2CCN(C)CC2)c1 [Example 23, 4-(4-((3-(3-(4-(Difluoromethoxy)phenyl)-1,2,4-oxadiazol-5-yl)-5-methyl-1H-1,2,4-triazol-1-yl)methyl)pyridin-1-ium-2-yl)-1-methylpiperazin-1-ium bis-trifluoroacetate] | 6.00 to 7.00 |
| Cc1nc(-c2ncc(-c3ccc(OC(F)(F)F)cc3)o2)nn1Cc1cccc(S(=O)(=O)N2CCOCC2)c1 [Example 153, 4-{3-[(5-methyl-3-{5-[4-(trifluoromethoxy)phenyl]-1,3-oxazol-2-yl}-1H-1,2,4-triazol-1-yl)methyl]benzenesulfonyl}morpholine] | 6.00 to 7.00 |
| COC(=O)c1cccc(Cn2nc(-c3nc(-c4ccc(OC(F)(F)F)cc4)cs3)nc2C)c1 [Example 150, methyl 3-[(5-methyl-3-{4-[4-(trifluoromethoxy)phenyl]-1,3-thiazol-2-yl}-1H-1,2,4-triazol-1-yl)methyl]benzoate] | 6.00 to 7.00 |
| Cc1nc(-c2nc(-c3ccc(OC(F)(F)F)cc3)no2)nn1Cc1ccn(CC(C)C)c(=O)c1 [Example 76a, 4-[(5-Methyl-3-{3-[4-(trifluoromethoxy)phenyl]-1,2,4-oxadiazol-5-yl}-1H-1,2,4-triazol-1-yl)methyl]-1-(2-methylpropyl)-1,2-dihydropyridin-2-one] | 6.00 to 7.00 |
| Cc1nc(-c2ncc(-c3ccc(OC(F)(F)F)cc3)o2)nn1Cc1cccc(S(C)(=O)=O)c1 [Example 159, 1-[(3-methanesulfonylphenyl)methyl]-5-methyl-3-{5-[4-(trifluoromethoxy)phenyl]-1,3-oxazol-2-yl}-1H-1,2,4-triazole] | 6.00 to 7.00 |
| COCCCNc1nccc(Cn2nc(-c3nc(-c4ccc(OC(F)(F)F)cc4)no3)nc2C)n1 [Example 117, N-(3-methoxypropyl)-4-((5-methyl-3-(3-(4-(trifluoromethoxy)phenyl)-1,2,4-oxadiazol-5-yl)-1H-1,2,4-triazol-1-yl)methyl)pyrimidin-2-amine] | 6.00 to 7.00 |
| CNS(=O)(=O)c1cccc(Cn2nc(-c3nc(-c4ccc(OC(F)(F)F)cc4)no3)nc2C)c1 [Example 136, N-methyl-3-[(5-methyl-3-{3-[4-(trifluoromethoxy)phenyl]-1,2,4-oxadiazol-5-yl}-1H-1,2,4-triazol-1-yl)methyl]benzene-1-sulfonamide] | > 7.00 |
| Cc1nc(-c2nnc(-c3ccccc3)o2)nn1Cc1ccnc(N2CCC(C)(C)CC2)c1 [Example 5, 2-(4,4-Dimethylpiperidin-1-yl)-4-((5-methyl-3-(5-phenyl-1,3,4-oxadiazol-2-yl)-1H-1,2,4-triazol-1-yl)methyl)pyridin-1-ium trifluoroacetate] | 5.00 to 6.00 |
| Cc1nc(-c2nc(-c3ccc(OC(F)(F)F)cc3)no2)nn1Cc1ccnc(N2CCNCC2)c1 [Example 1, 4-(4-((5-Methyl-3-(3-(4-(trifluoromethoxy)phenyl)-1,2,4-oxadiazol-5-yl)-1H-1,2,4-triazol-1-yl)methyl)pyridin-2-yl)piperazin-1-ium trifluoroacetate] | 6.00 to 7.00 |
| Cc1nc(-c2nc(-c3ccc(OC(F)(F)F)cc3)no2)nn1Cc1ccc2ccccc2n1 [Example 113, 5-(5-methyl-1-(quinolin-2-ylmethyl)-1H-1,2,4-triazol-3-yl)-3-(4-(trifluoromethoxy)phenyl)-1,2,4-oxadiazole] | > 7.00 |
| CNc1cc(Cn2nc(-c3nc(-c4ccc(OC(F)(F)F)cc4)no3)nc2C)ccn1 [Example 36, N-Methyl-4-((5-methyl-3-(3-(4-(trifluoromethoxy)phenyl)-1,2,4-oxadiazol-5-yl)-1H-1,2,4-triazol-1-yl)methyl)pyridin-2-amine] | > 7.00 |
